Reference: PubChem BioAssay (NCI)
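In this assay, cells in 96-well plates receive the compound at five concentrations for 48 hours. Endpoints are linearly interpolated between the surrounding concentrations. Here, GI50 denotes the concentration required for 50% inhibition of growth. TGI marks complete inhibition of growth.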

Columns and labels:
Experiment in all cases: DTP human tumour cell line panel, 48 h
786-0 renal = system: 786-0 renal
HT29 colon = system: HT29 colon
CCRF-CEM leukemia = system: CCRF-CEM leukemia
TK-10 renal = system: TK-10 renal
MOLT-4 leukemia = system: MOLT-4 leukemia
SR leukemia = system: SR leukemia
OVCAR-5 ovarian = system: OVCAR-5 ovarian
HOP-92 NSCLC = system: HOP-92 NSCLC
T-47D breast = system: T-47D breast
HS 578T breast = system: HS 578T breast

| SMILES | TGI (786-0 renal) [µM] | TGI (HT29 colon) [µM] | TGI (CCRF-CEM leukemia) [µM] | TGI (TK-10 renal) [µM] | TGI (MOLT-4 leukemia) [µM] | TGI (SR leukemia) [µM] | TGI (OVCAR-5 ovarian) [µM] | TGI (HOP-92 NSCLC) [µM] | TGI (T-47D breast) [µM] | TGI (HS 578T breast) [µM] | GI50 (HS 578T breast) [µM] | GI50 (TK-10 renal) [µM] | GI50 (OVCAR-5 ovarian) [µM] | GI50 (HOP-92 NSCLC) [µM] | GI50 (CCRF-CEM leukemia) [µM] | GI50 (T-47D breast) [µM] | GI50 (HT29 colon) [µM] | GI50 (MOLT-4 leukemia) [µM] | GI50 (SR leukemia) [µM] |
| --- | --- | --- | --- | --- | --- | --- | --- | --- | --- | --- | --- | --- | --- | --- | --- | --- | --- | --- | --- |
| CC1(C)COC(c2c(-c3ccccc3)noc2CS(=O)c2ccccc2)=N1 (centres undefined) | > 100 | > 100 | > 100 | > 100 | > 100 | > 100 | > 100 | – | – | – | – | – | – | – | – | – | – | – | – |
| CCN(CC)CCCCC1CCN(CC(=O)N2c3ccccc3NC(=O)CC2C)CC1 (centres undefined) | > 100 | > 100 | > 100 | > 100 | > 100 | > 100 | > 100 | > 100 | – | – | – | – | – | – | – | – | – | – | – |
| C=CCOC(=O)CCCCCCCCCCCCCCCOC(=O)C1=C(CCC[C@@H](C)O[Si](C)(C)C(C)(C)C)NC(=O)N2[C@H](CC3(CC/C=C\[C@H](CC)O[Si](C(C)C)(C(C)C)C(C)C)OCCO3)CC[C@H]12 | > 100 | – | > 100 | > 100 | – | – | > 100 | 90.2 | > 100 | – | – | – | – | – | – | – | – | – | – |
| CC12CC(C/C1=N/O)C(C)(C)C2 (centres undefined) | > 100 | > 100 | > 100 | > 100 | – | – | > 100 | > 100 | > 100 | > 100 | – | – | – | – | – | – | – | – | – |
| O=C(OCc1ccccc1C1CSCSC1)c1cc(C(=O)OCc2ccccc2C2CSCSC2)c(C(=O)OCc2ccccc2C2CSCSC2)cc1C(=O)OCc1ccccc1C1CSCSC1 | > 100 | > 100 | > 100 | > 100 | > 100 | > 100 | > 100 | > 100 | – | – | – | – | – | – | – | – | – | – | – |
| OC12CCCCCC1(N1CCOCC1)c1ccccc12 (centres undefined) | > 100 | > 100 | > 100 | > 100 | > 100 | – | > 100 | – | – | – | – | – | – | – | – | – | – | – | – |
| Cc1cc(=O)[nH]c(NNC(C#N)c2ccc([N+](=O)[O-])cc2)n1 (centres undefined) | > 100 | > 100 | > 100 | > 100 | > 100 | > 100 | > 100 | > 100 | – | – | – | – | – | – | – | – | – | – | – |
| CC(C)(C)c1c(C(C)(C)C)c(=O)c1=O | > 100 | > 100 | > 100 | > 100 | > 100 | – | > 100 | > 100 | – | > 100 | – | – | – | – | – | – | – | – | – |
| [N-]=[N+]=C(C(=O)C(=[N+]=[N-])C(=O)c1ccccc1)C(=O)c1ccccc1 | > 100 | > 100 | – | > 100 | – | – | > 100 | – | – | > 100 | – | – | – | – | – | – | – | – | – |
| O=c1c2c(nc3n1CCC3)sc1c(O)c(Br)ccc12 | 37.4 | 33.1 | 45.1 | 60.5 | 55.1 | 54 | 51.7 | > 100 | – | – | – | – | – | – | – | – | – | – | – |
| Cc1cc2occ(-c3ccc(Cl)cc3)c2c(=O)o1 | > 100 | > 100 | > 100 | > 100 | > 100 | > 100 | > 100 | > 100 | – | – | – | – | – | – | – | – | – | – | – |
| O=C(CSc1nc2ccc(I)cc2c(=O)n1Cc1ccccc1)NN1C(=O)CCC1=O | > 100 | > 100 | > 100 | > 100 | > 100 | > 100 | > 100 | 64.7 | > 100 | – | – | – | – | – | – | – | – | – | – |
| CC(=O)NC1=C(NCC(C)C)C(=O)c2ccccc2C1=O | 31.9 | > 100 | 28.4 | 40.9 | > 100 | – | > 100 | 28.3 | – | – | – | – | – | – | – | – | – | – | – |
| COC(=O)C(C(=O)C(=O)NC1Nc2ccc(C)cc2S1)c1nc2ccc(Cl)cc2[nH]c1=O (centres undefined) | > 100 | > 100 | – | > 100 | – | – | > 100 | > 100 | > 100 | > 100 | – | – | – | – | – | – | – | – | – |
| Cc1cn([C@H]2[C@@H](CO)C[C@H]2O)c(=O)[nH]c1=O | > 100 | > 100 | > 100 | > 100 | > 100 | > 100 | > 100 | > 100 | – | > 100 | – | – | – | – | – | – | – | – | – |
| CC(=O)Nc1ccc(C(=O)N2N=C(C)/C(=C/c3ccc(O)cc3)C2=O)cc1 | > 100 | > 100 | > 100 | > 100 | > 100 | > 100 | > 100 | – | – | – | – | – | – | – | – | – | – | – | – |
| N#CCCC1(CCC#N)CCCCCCC(CCC#N)(CCC#N)C(O)C1O (centres undefined) | > 100 | > 100 | – | > 100 | – | > 100 | > 100 | > 100 | > 100 | – | – | – | – | – | – | – | – | – | – |
| CC(c1ccccc1)N1CC(C)(c2ccccc2)N(O)C(c2ccccc2)C1C (centres undefined) | 30.2 | > 100 | 31 | > 100 | 29.8 | – | > 100 | 8.36 | – | – | – | – | – | – | – | – | – | – | – |
| C=C1CC(Cn2cc(Br)c(=O)[nH]c2=O)(c2ccc(-c3ccccc3)cc2)OC1=O (centres undefined) | 2.29 | 1.91 | 0.712 | 0.842 | – | – | 15.6 | 0.113 | 4.87 | > 20.5 | – | – | – | – | – | – | – | – | – |
| COc1ccc(C2=C(OC(=O)N(C)C)c3cccn3-c3cc(Cl)ccc3S2)cc1 | > 10 | > 10 | > 10 | > 10 | > 10 | > 10 | – | > 10 | > 10 | – | – | – | – | – | – | – | – | – | – |
| CCCCCCOc1ccc(C(=N)N(CCCC)CCCC)c2ccccc12 | – | – | – | 3.14 | – | – | 2.94 | 2.6 | – | 3.76 | 1.61 | 1.57 | 1.53 | 1.07 | – | – | – | – | – |
| C/C(=C\Cc1cc(O)ccc1O)CCc1c(C)cc(O)c(C=O)c1C | 62.6 | 48.6 | 30.5 | > 100 | > 100 | > 100 | – | 35.3 | – | – | – | – | – | – | 4.46 | – | – | – | – |
| Oc1[nH]c2ccccc2c1/C=c1/cc2c(c(-c3ccc(C(F)(F)F)cc3)n1)=Nc1ccccc1-2 | – | 11.4 | 16.4 | 22.9 | 13.2 | 11.3 | 33.8 | – | 13.9 | 69.9 | 10.3 | 5.54 | 11.8 | – | 3.06 | 3.05 | 3.16 | 3.32 | 1.27 |
| COc1cccc(CN(C(=O)/C=C\Sc2ccccc2)C(C)(C)C)c1 | > 100 | > 100 | > 100 | > 100 | > 100 | – | > 100 | 70.8 | > 100 | – | – | – | – | – | – | – | – | – | – |
